Where two headings read alike, the source gives them in different places.
Key:
[1] = target: T1, Gal4 DNA binding domain fused to the LBD of LXRβ in HEK293 cells (Homo sapiens (Human), UniProt P55055); assay: cell-based
LXR α LBD protein [2] = target: T2, LXR α LBD protein (Homo sapiens (Human), UniProt Q13133); assay: Human LXRα coactivator recruitment FRET assay, agonist mode; type: biochemical
Outline: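 LXRα- or LXRβ-LBD at 10 nM (2×) mixed with compound in DMSO, then fluorescein-SRC2-3 peptide 200 nM and Tb-anti-GST antibody 20 nM (4×) added; 2 h at rt. Time-resolved FRET read, 100 µs delay, 200 µs window; EC50 from four-parameter fit of percent control.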

LXR α LBD protein [3] = target: T2, LXR α LBD protein; assay: LXR α radioligand binding assay (SPA, competition with [3H]TO901317); conditions: read-out: LXRα Binding Ki
LXR β LBD protein [4] = target: T3, LXR β LBD protein (Homo sapiens (Human), UniProt P55055); assay: biochemical; type: biochemical; conditions: for EC50: read-out: FRET LXRβ EC50
Target sequence in this assay (P55055 222-460): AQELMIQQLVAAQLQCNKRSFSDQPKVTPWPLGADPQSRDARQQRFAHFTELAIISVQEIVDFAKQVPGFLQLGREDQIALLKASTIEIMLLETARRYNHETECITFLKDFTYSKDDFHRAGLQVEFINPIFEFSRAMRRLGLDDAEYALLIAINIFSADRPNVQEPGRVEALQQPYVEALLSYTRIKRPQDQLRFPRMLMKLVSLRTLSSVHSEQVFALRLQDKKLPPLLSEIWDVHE

[5] = target: T1, Gal4 DNA binding domain fused to the LBD of LXRβ in HEK293 cells; assay: cell-based; type: cell-based
[6] = target: T4, Gal4 DNA binding domain fused to the LBD of LXRα in HEK293 cells (Homo sapiens (Human), UniProt Q13133); assay: LXR luciferase transcriptional reporter gene assay, antagonist mode (200 nM T0901317), LXRα; type: cell-based; conditions: for IC50: read-out: Cell LXRα IC50
T4 sequence (Q13133 209-447): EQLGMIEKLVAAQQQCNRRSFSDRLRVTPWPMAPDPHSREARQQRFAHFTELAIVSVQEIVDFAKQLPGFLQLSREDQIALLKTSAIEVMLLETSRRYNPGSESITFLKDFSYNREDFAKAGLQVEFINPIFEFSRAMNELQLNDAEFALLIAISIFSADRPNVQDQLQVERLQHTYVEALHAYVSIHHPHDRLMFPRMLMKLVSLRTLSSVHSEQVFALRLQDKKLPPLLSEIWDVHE

LXR β LBD protein [7] = target: T3, LXR β LBD protein; assay: biochemical; type: binding; conditions: read-out: LXRβ Binding Ki
Target sequence in this assay (P55055 222-460 limits assumed): as the sequence (P55055 222-460) above

[8] = target: T4, Gal4 DNA binding domain fused to the LBD of LXRα in HEK293 cells; assay: LXR luciferase transcriptional reporter gene assay, agonist mode, LXRα; type: cell-based; conditions: for EC50: read-out: Cell LXRα EC50
[9] = antagonist mode, 200 nM T0901317, HEK293 reporter gene assay
[10] = Biological Test Example 2, agonist mode
[11] = Biological Test Example 3, agonist mode

T2 sequence (Q13133 209-447): as the sequence (Q13133 209-447) above
T1 sequence (P55055 222-460 limits assumed): as the sequence (P55055 222-460) above

SMILES	EC50 [1] [nM]	EC50 (LXR α LBD protein [2]; agonist mode) [nM]	Ki (LXR α LBD protein [3]) [nM]	EC50 (LXR β LBD protein [4]) [nM]	Cell LXRβ efficacy [5]	IC50 [5] [nM]	Cell LXRα efficacy [6]	IC50 [6] [µM]	Ki (LXR β LBD protein [7]) [nM]	EC50 [8] [nM]	Cell LXRβ efficacy ([1]; agonist mode)	FRET LXRα efficacy (LXR α LBD protein [2]; agonist mode) [%]	FRET LXRβ efficacy (LXR β LBD protein [4]; agonist mode)	EC50 (LXR β LBD protein [4]; agonist mode) [nM]	Cell LXRβ efficacy [5, 9]	Cell LXRα efficacy [8]	IC50 [6, 9] [µM]	other results
Cc1ccc(CN2CCN(c3cccc(S(C)(=O)=O)c3)C[C@@H]2c2ccccc2)cc1 (single isomer, unassigned) [46-6]	> 20000	> 50000	519	> 50000	148 (106) %	148	957 (105) %	0.957	63	> 20000	–	–	–	–	–	–	–	–
CS(=O)(=O)c1cccc(N2CCN(C[C@H]3CC[C@@H](C(F)(F)F)CC3)[C@@H](c3ccccc3)C2)c1 (single isomer, unassigned) [48-31]	–	401	42	–	–	–	6705 (128) %	6.71	5	254	35%	56	37%	22	96%	254 (61) %	–	EC50 ([1]; agonist mode, read-out: Cell LXRβ EC50): 95 nM; IC50 ([5]; antagonist mode, 200 nM T0901317, HEK293 reporter gene assay, read-out: Cell LXRβ IC50): 436 nM
CS(=O)(=O)c1cccc(N2CCN(C[C@@H]3CCN(CC(F)(F)F)C3)[C@@H](c3ccccc3)C2)c1 (single isomer, unassigned) [48-61]	467	–	1420	112	–	118	870 (56) %	–	–	–	–	–	–	–	118 (72) %	2312 (23) %	0.87	Cell LXRβ efficacy [1, 10]: 467 (5) %; EC50 (LXR α LBD protein [2]; [11]): 347 nM; FRET LXRα efficacy (LXR α LBD protein [2]; [11]): 26%; FRET LXRβ efficacy (LXR β LBD protein [4]; [11]): 112 (23) %; Ki (LXR β LBD protein [7]; Biological Test Example 1): 417 nM; EC50 [8, 10]: 2310 nM
CC(C)[C@@H]1CN(c2cccc(S(C)(=O)=O)c2)CCN1C(=O)OC(C)(C)C [1-1, tert-butyl (R)-2-isopropyl-4-(3-(methylsulfonyl)phenyl)piperazine-1-carboxylate]	467	409	1690	–	–	2000	–	> 10	157	2780	467 (34) %	60	88%	15	1996 (45) %	2778 (44) %	–	–
CC(C)c1ccc(CN2CCN(c3cccc(S(C)(=O)=O)c3)C[C@@H]2c2ccccc2)cc1 [46-8, (S)-1-(4-isopropylbenzyl)-4-(3-(methylsulfonyl)phenyl)-2-phenylpiperazine]	1360	468	1720	> 50000	1421 (96) %	1420	8904 (282) %	8.9	227	3200	–	15	–	–	–	3200 (22) %	–	Cell LXRβ efficacy [1]: 1358 (18) %
CS(=O)(=O)c1cccc(N2CCN(Cc3ccc(C(F)(F)F)cc3)[C@@H](c3ccc(F)cc3)C2)c1 [46-24, (S)-2-(4-fluorophenyl)-4-(3-(methylsulfonyl)phenyl)-1-(4-(trifluoromethyl)benzyl)piperazine]	636	2700	–	347	–	5820	3139 (51) %	–	359	–	636 (27) %	39	347 (45) %	–	5823 (95) %	2711 (31) %	3.14	EC50 ([8]; agonist mode): 2710 nM
